# Assay results as given in the supplement of paper PMC10307832.
# What was measured:
# Assay in all cases: relative viability (nuclei count vs DMSO), 5 days (fraction); higher = more cells survive
# [1] = compound: Cc1ccc(-n2nc(C(C)(C)C)cc2NC(=O)Nc2ccc(OCCN3CCOCC3)c3ccccc23)cc1 [Doramapimod] + CS(=O)(=O)N1CCN(Cc2cc3nc(-c4cccc5[nH]ncc45)nc(N4CCOCC4)c3s2)CC1 [Pictilisib] (partner 1 µM)
# How it was run: (§1)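 For relative viability, nuclei counts in treated wells were divided by those in vehicle wells. Lung cancer cell lines had been pin-tool dosed in 1536-well plates the day after seeding and cultured for 5 days, then fixed and stained in one step (final 0.05% Triton X-100, 1% formaldehyde, 1 ug/ml Hoechst) and imaged at 4×. Doses were one drug alone or a fixed anchor-drug dose plus five library-drug doses (not always all listed) in √10 steps, and values are duplicate-plate medians.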
# [2] = compound: Cn1c(Nc2ccc(C(F)(F)F)cc2)nc2cc(Oc3ccnc(-c4ncc(C(F)(F)F)[nH]4)c3)ccc21 [RAF265] + CC(=O)Nc1cccc(-n2c(=O)n(C3CC3)c(=O)c3c(Nc4ccc(I)cc4F)n(C)c(=O)c(C)c32)c1 [Trametinib] (partner 0.02 µM)
# How it was run: as §1
# [3] = compound: Cn1c(Nc2ccc(C(F)(F)F)cc2)nc2cc(Oc3ccnc(-c4ncc(C(F)(F)F)[nH]4)c3)ccc21 [RAF265] + CCNC(=O)c1noc(-c2cc(C(C)C)c(O)cc2O)c1-c1ccc(CN2CCOCC2)cc1 [Luminespib] (partner 0.01 µM)
# How it was run: as §1
# [4] = compound: Cc1ccc(-n2nc(C(C)(C)C)cc2NC(=O)Nc2ccc(OCCN3CCOCC3)c3ccccc23)cc1 [Doramapimod] + CCNC(=O)c1noc(-c2cc(C(C)C)c(O)cc2O)c1-c1ccc(CN2CCOCC2)cc1 [Luminespib] (partner 0.01 µM)
# How it was run: as §1
cell line,measurement,setting,value
UMC-11,relative viability,[1]; first compound 0.02 µM,0.726
same,relative viability,[1]; first compound 0.06325 µM,0.759
same,relative viability,[1]; first compound 0.2 µM,0.726
same,relative viability,[1]; first compound 0.6325 µM,0.547
same,relative viability,[1]; first compound 2 µM,0.615
same,relative viability,[2]; first compound 0.01 µM,0.749
same,relative viability,[2]; first compound 0.03162 µM,0.634
same,relative viability,[2]; first compound 0.1 µM,0.748
same,relative viability,[2]; first compound 0.3162 µM,0.855
same,relative viability,[2]; first compound 1 µM,0.649
same,relative viability,[3]; first compound 0.01 µM,0.984
same,relative viability,[3]; first compound 0.03162 µM,1.01
same,relative viability,[3]; first compound 0.1 µM,1.06
same,relative viability,[3]; first compound 0.3162 µM,1.01
same,relative viability,[3]; first compound 1 µM,0.936
same,relative viability,[4]; first compound 0.02 µM,0.911
same,relative viability,[4]; first compound 0.06325 µM,0.869
same,relative viability,[4]; first compound 0.2 µM,0.904
same,relative viability,[4]; first compound 0.6325 µM,0.965
same,relative viability,[4]; first compound 2 µM,0.913
